Patent US6359003B1 (Fumapharm AG, priority 1998, dated 2002)

Tests used:
Ehrlich ascites tumour = settings: mice; cited from earlier work
[1] = high dosages; parenterally, transdermally and especially perorally; cited from earlier work
[2] = tested on: acute rejection of the graft (host-versus-graft reaction), rat kidney transplantation model; test: Acute rejection model, rat kidney transplantation; type: in vivo; settings: 33.3 mg/kg/day, day -28 to +28
Experimental: (§1) The effect of calcium methyl fumarate for alleviating the host-versus-graft reaction both in acute and chronic rejection models was investigated on a rat kidney transplantation model.
In order to investigate the influence of calcium methyl fumarate on the acute rejection of the graft, animal experiments were carried out (on rats). For this purpose, two groups of rats were treated with calcium methyl fumarate (CaMF; dosage: 33.3 mg/kg/day) or a placebo for a total period of 56 days [28 days before the kidney transplantation (−28) to 28 days after transplantation (+28)]. The number of animals with results fit for evaluation were n=9 in the placebo group and n=12 in the verum group. After that, the survival time of the animals in days after the transplantation was evaluated.

[3] = tested on: chronic rejection (host-versus-graft reaction), rat kidney transplantation model; test: Chronic rejection model, rat kidney transplantation; type: in vivo; settings: for Creatinine: serum; for Creatinine / Proteinuria: week 10 after transplantation, cyclosporine 1.5 mg/kg/day s.c. day 0-9
From the text: as §1
In order to investigate the effect of calcium methyl fumarate on chronic rejection, three groups of rats received transplants (kidneys) in animal experiments. Groups 1 and 2 received a placebo (group 1) or calcium methyl fumarate (CaMF) (group 2) as active ingredient from day 28 before until day 28 after transplantation. The third group was given CaMF from day 30 to 60 after the kidney transplantation. All animals received cyclosporine from day 0 to 9 after the transplantation. The dosages administered were 1.5 mg/kg/day of cyclosporine (subcutaneously) and 33.3 mg/kg/day of CaMF (perorally).
The effect of the treatment was checked by measuring the creatinine levels in the serum, initially on day 0, 1, 3, 5, and 10 and then once a week, and by observing the urine protein levels which were measured once a week. In groups 1 and 2, n=10 animals each provided results suitable for evaluation; in group 3, n=9.

[4] = Group 2: 33.3 mg/kg/day perorally day -28 to +28, n=10
[5] = Group 3: 33.3 mg/kg/day perorally day +30 to +60, n=9

O=C(O)/C=C/C(=O)O [Fumaric acid]
Growth of the Ehrlich ascites tumour (Ehrlich ascites tumour): inhibits the growth

O=C(O)/C(O)=C(\O)C(=O)O [dihydroxyl fumaric acid]
Side effects and toxicity [1]: unacceptably severe side effects and high toxicity

NC(=O)/C=C/C(N)=O [fumaramide]
Side effects and toxicity [1]: unacceptably severe side effects and high toxicity

N#C/C=C/C#N [fumaronitrile]
Side effects and toxicity [1]: unacceptably severe side effects and high toxicity

calcium methyl fumarate [CaMF]
Average survival time in days versus placebo (in words) [2]: significant increase | Number of surviving animals ([2]; >100 days after transplantation, n=12): 4 | Average survival time ([2]; after kidney transplantation, n=12): >42.3 ± 41.0 days | Number of surviving animals ([2]; day 6 after transplantation, n=12): 12 | Number of surviving animals ([2]; day 7 after transplantation, n=12): 12 | Number of surviving animals ([2]; day 8 after transplantation, n=12): 12 | Number of surviving animals ([2]; day 9 after transplantation, n=12): 11 | Number of surviving animals ([2]; day 10 after transplantation, n=12): 10 | Number of surviving animals ([2]; day 12 after transplantation, n=12): 9 | Number of surviving animals ([2]; day 13 after transplantation, n=12): 8 | Number of surviving animals ([2]; day 14 after transplantation, n=12): 7 | Number of surviving animals ([2]; day 16 after transplantation, n=12): 6 | Number of surviving animals ([2]; day 17 after transplantation, n=12): 5 | Number of surviving animals ([2]; day 26 after transplantation, n=12): 5 | Number of surviving animals ([2]; day 27 after transplantation, n=12): 4 | Damage to the kidneys (in words) ([3]; 10 weeks of follow-up, versus placebo): significant inhibition of damage to the kidneys | Creatinine [3, 4]: 55.7 ± 9.6 µmol/L | Creatinine [3, 5]: 88.0 ± 42.4 µmol/L | Proteinuria [3, 4]: 31.8 ± 18.4 mg/24 hrs | Proteinuria [3, 5]: 52.5 ± 31.6 mg/24 hrs
